One may read the IC50 as the concentration that gives 50% inhibition.

One compound from PMC5519579, “Inhibition of PAI-1 Activity by Toddalolactone as a Mechanism for Promoting Blood Circulation and Removing Stasis by Chinese Herb Zanthoxylum nitidum var. tomentosum” (Frontiers in Pharmacology, 2017) can be followed below.

The assay has as its target T1, plasminogen activator inhibitor-1 (PAI-1) (Homo sapiens, UniProt P05121).
T1 construct: gene SERPINE1; recombinant human PAI-1
Nature of the assay: chromogenic uPA/S-2444 assay with recombinant PAI-1; supported by SDS-PAGE of PAI-1/uPA complex and clot lysis assay. The format is biochemical.

T1 sequence (P05121 24-402, other chains not shown): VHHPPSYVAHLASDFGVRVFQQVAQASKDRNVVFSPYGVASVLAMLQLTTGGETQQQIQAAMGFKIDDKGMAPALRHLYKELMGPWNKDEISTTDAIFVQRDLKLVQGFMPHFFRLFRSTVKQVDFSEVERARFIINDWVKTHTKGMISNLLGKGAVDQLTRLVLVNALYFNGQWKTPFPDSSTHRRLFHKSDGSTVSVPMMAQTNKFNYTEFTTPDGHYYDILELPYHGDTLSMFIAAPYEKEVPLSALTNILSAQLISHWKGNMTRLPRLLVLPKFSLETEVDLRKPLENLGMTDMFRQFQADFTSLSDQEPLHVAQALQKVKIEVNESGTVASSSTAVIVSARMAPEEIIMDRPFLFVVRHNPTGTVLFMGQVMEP

On to `COc1cc2oc(=O)ccc2c(OC)c1C[C@@H](O)C(C)(C)O` (single isomer, unassigned) [Peak 4, toddalolactone], for which the IC50 was 37.3 ± 3.23 µM.
